Test results taken from ChEMBL document CHEMBL1147193, “New 5-substituted thiazolo[3,2-b][1,2,4]triazol-6-ones: synthesis and anticancer evaluation” (2007).

How the values were obtained:
Format in all cases: functional
[1] = tested on: A549; assay: Growth inhibition of human A549/ATCC cells after 48 hrs by SRB protein assay; details: A549, 48 h
[2] = tested on: CCRF-CEM; assay: Growth inhibition of human CCRF-CEM cells after 48 hrs by SRB protein assay
[3] = tested on: UACC-257; assay: Growth inhibition of human UACC257 cells after 48 hrs by SRB protein assay; details: UACC-257, 48 h
[4] = tested on: M14; assay: Growth inhibition of human M14 cells after 48 hrs by SRB protein assay; details: M14, 48 h
[5] = tested on: PC-3; assay: Growth inhibition of human PC3 cells after 48 hrs by SRB protein assay; details: PC-3, 48 h
[6] = tested on: OVCAR-3; assay: Growth inhibition of human OVCAR-3 cells after 48 hrs by SRB protein assay; details: OVCAR-3, 48 h
[7] = tested on: NCI-H460; assay: Anticancer activity against human NCI-H460 cells assessed as growth of cells at 100 uM relative to untreated cells
[8] = tested on: RPMI-8226; assay: Growth inhibition of human RPMI8226 cells after 48 hrs by SRB protein assay; details: RPMI-8226, 48 h
[9] = tested on: UO-31; assay: Growth inhibition of human UO31 cells after 48 hrs by SRB protein assay; details: UO-31, 48 h
[10] = tested on: SW-620; assay: Growth inhibition of human SW620 cells after 48 hrs by SRB protein assay; details: SW-620, 48 h
[11] = tested on: SK-MEL-28; assay: Growth inhibition of human SK-MEL-28 cells after 48 hrs by SRB protein assay; details: SK-MEL-28, 48 h
[12] = tested on: SK-MEL-5; assay: Growth inhibition of human SK-MEL-5 cells after 48 hrs by SRB protein assay; details: SK-MEL-5, 48 h
[13] = Growth inhibition of human MDA-MB-231/ATCC cells after 48 hrs by SRB protein assay; details: MDA-MB-231, 48 h
[14] = tested on: NCI-H522; assay: Growth inhibition of human NCI-H522 cells after 48 hrs by SRB protein assay; details: NCI-H522, 48 h
[15] = tested on: HT-29; assay: Growth inhibition of human HT29 cells after 48 hrs by SRB protein assay; details: HT-29, 48 h
[16] = tested on: COLO 205; assay: Growth inhibition of human COLO205 cells after 48 hrs by SRB protein assay; details: COLO 205, 48 h
[17] = tested on: HCT-116; assay: Growth inhibition of human HCT116 cells after 48 hrs by SRB protein assay; details: HCT-116, 48 h
[18] = tested on: OVCAR-4; assay: Growth inhibition of human OVCAR4 cells after 48 hrs by SRB protein assay; details: OVCAR-4, 48 h
[19] = tested on: OVCAR-8; assay: Growth inhibition of human OVCAR8 cells after 48 hrs by SRB protein assay; details: OVCAR-8, 48 h
[20] = tested on: NCI/ADR-RES; assay: Growth inhibition of human NCI/ADR-RES cells after 48 hrs by SRB protein assay
[21] = tested on: HOP-62; assay: Growth inhibition of human HOP62 cells after 48 hrs by SRB protein assay; details: HOP-62, 48 h
[22] = tested on: SN12C; assay: Growth inhibition of human SN12C cells after 48 hrs by SRB protein assay
[23] = tested on: ACHN; assay: Growth inhibition of human ACHN cells after 48 hrs by SRB protein assay
[24] = tested on: U-251; assay: Growth inhibition of human U251 cells after 48 hrs by SRB protein assay; details: U-251, 48 h
[25] = tested on: MCF7; assay: Growth inhibition of human MCF7 cells after 48 hrs by SRB protein assay; details: MCF7, 48 h
[26] = tested on: HCC 2998; assay: Growth inhibition of human HCC2998 cells after 48 hrs by SRB protein assay; details: HCC 2998, 48 h
[27] = tested on: SK-MEL-2; assay: Growth inhibition of human SK-MEL-2 cells after 48 hrs by SRB protein assay; details: SK-MEL-2, 48 h
[28] = tested on: MDA-MB-435; assay: Growth inhibition of human MDA-MB-435 cells after 48 hrs by SRB protein assay; details: MDA-MB-435, 48 h
[29] = tested on: TK-10; assay: Growth inhibition of human TK10 cells after 48 hrs by SRB protein assay; details: TK-10, 48 h
[30] = tested on: NCI-H322M; assay: Growth inhibition of human NCI-H322M cells after 48 hrs by SRB protein assay
[31] = tested on: NCI-H460; assay: Growth inhibition of human NCI-H460 cells after 48 hrs by SRB protein assay; details: NCI-H460, 48 h
[32] = tested on: MCF7; assay: Anticancer activity against human MCF7 cells assessed as growth of cells at 100 uM relative to untreated cells
[33] = tested on: Hs-578T; assay: Growth inhibition of human HS578T cells after 48 hrs by SRB protein assay
[34] = tested on: SF-295; assay: Growth inhibition of human SF295 cells after 48 hrs by SRB protein assay; details: SF-295, 48 h
[35] = tested on: KM12; assay: Growth inhibition of human KM12 cells after 48 hrs by SRB protein assay; details: KM12, 48 h
[36] = tested on: OVCAR-5; assay: Growth inhibition of human OVCAR5 cells after 48 hrs by SRB protein assay; details: OVCAR-5, 48 h
[37] = tested on: BT-549; assay: Growth inhibition of human BT549 cells after 48 hrs by SRB protein assay; details: BT-549, 48 h
[38] = Growth inhibition of human MALME 3M cells after 48 hrs by SRB protein assay
[39] = tested on: T47D; assay: Growth inhibition of human T47D cells after 48 hrs by SRB protein assay
[40] = tested on: NCI-H226; assay: Growth inhibition of human NCI-H226 cells after 48 hrs by SRB protein assay; details: NCI-H226, 48 h

With COc1ccc(NC(=O)CC2Sc3ncnn3C2=O)cc1 (stereo not drawn) as the compound, how does the GI50 [1] read?
Its GI50 is 61.7 µM.

And the TGI ([1]; read-out: Log TGI (converted))?
The TGI was greater than 100 µM.

And the GI50 [2]?
The GI50 was 20.4 µM.

What about the TGI ([2]; read-out: Log TGI (converted)) of the same compound?
Its TGI is 41.7 µM.

And the GI50 [3]?
The GI50 was 20 µM.

What about the TGI ([3]; read-out: Log TGI (converted)) of the same compound?
Its TGI is 36.3 µM.

What about the GI50 [4] of the same compound?
The GI50 was 18.2 µM.

And the TGI ([4]; read-out: Log TGI (converted))?
The TGI was 33.9 µM.

What about the GI50 [5] of the same compound?
The GI50 was 23.4 µM.

What about the TGI ([5]; read-out: Log TGI (converted)) of the same compound?
Its TGI is 56.2 µM.

What about the GI50 [6] of the same compound?
Its GI50 is 18.6 µM.

What about the TGI ([6]; read-out: Log TGI (converted)) of the same compound?
The TGI was 38 µM.

What about the Activity [7] of the same compound?
The Activity was 0%.

What about the GI50 [8] of the same compound?
Its GI50 is 25.1 µM.

What about the TGI ([8]; read-out: Log TGI (converted)) of the same compound?
The TGI was 64.6 µM.

And the GI50 [9]?
Its GI50 is 23.4 µM.

And the TGI ([9]; read-out: Log TGI (converted))?
Its TGI is 53.7 µM.

And the GI50 [10]?
Its GI50 is 37.2 µM.

And the TGI ([10]; read-out: Log TGI (converted))?
The TGI was greater than 100 µM.

What about the GI50 [11] of the same compound?
Its GI50 is 26.9 µM.

And the TGI ([11]; read-out: Log TGI (converted))?
Its TGI is greater than 57.5 µM.

What about the GI50 [12] of the same compound?
Its GI50 is 17.4 µM.

What about the TGI ([12]; read-out: Log TGI (converted)) of the same compound?
Its TGI is 35.5 µM.

What about the GI50 [13] of the same compound?
Its GI50 is 21.4 µM.

And the TGI ([13]; read-out: Log TGI (converted))?
The TGI was 38.9 µM.

And the GI50 [14]?
Its GI50 is 19.5 µM.

And the TGI ([14]; read-out: Log TGI (converted))?
The TGI was 43.7 µM.

What about the GI50 [15] of the same compound?
The GI50 was 47.9 µM.

And the TGI ([15]; read-out: Log TGI (converted))?
The TGI was greater than 100 µM.

What about the GI50 [16] of the same compound?
Its GI50 is 30.2 µM.

What about the TGI ([16]; read-out: Log TGI (converted)) of the same compound?
Its TGI is 79.4 µM.

And the GI50 [17]?
Its GI50 is 17 µM.

What about the TGI ([17]; read-out: Log TGI (converted)) of the same compound?
The TGI was 30.9 µM.

What about the GI50 [18] of the same compound?
The GI50 was 57.5 µM.

What about the TGI ([18]; read-out: Log TGI (converted)) of the same compound?
The TGI was greater than 100 µM.

What about the GI50 [19] of the same compound?
The GI50 was 22.4 µM.

And the TGI ([19]; read-out: Log TGI (converted))?
Its TGI is 46.8 µM.

And the GI50 [20]?
The GI50 was 31.6 µM.

And the TGI ([20]; read-out: Log TGI (converted))?
Its TGI is greater than 100 µM.

What about the GI50 [21] of the same compound?
Its GI50 is greater than 100 µM.

And the TGI ([21]; read-out: Log TGI (converted))?
Its TGI is greater than 100 µM.

And the GI50 [22]?
The GI50 was 25.1 µM.

And the TGI ([22]; read-out: Log TGI (converted))?
The TGI was 56.2 µM.

And the GI50 [23]?
The GI50 was 21.4 µM.

What about the TGI ([23]; read-out: Log TGI (converted)) of the same compound?
The TGI was 47.9 µM.

And the GI50 [24]?
The GI50 was 22.4 µM.

What about the TGI ([24]; read-out: Log TGI (converted)) of the same compound?
The TGI was 44.7 µM.

What about the GI50 [25] of the same compound?
Its GI50 is 25.1 µM.

And the TGI ([25]; read-out: Log TGI (converted))?
Its TGI is 64.6 µM.

And the GI50 [26]?
Its GI50 is greater than 100 µM.

What about the TGI ([26]; read-out: Log TGI (converted)) of the same compound?
Its TGI is greater than 100 µM.

And the GI50 [27]?
The GI50 was greater than 100 µM.

And the TGI ([27]; read-out: Log TGI (converted))?
The TGI was greater than 100 µM.

What about the GI50 [28] of the same compound?
Its GI50 is 26.3 µM.

And the TGI ([28]; read-out: Log TGI (converted))?
The TGI was 70.8 µM.

What about the GI50 [29] of the same compound?
The GI50 was 16.6 µM.

And the TGI ([29]; read-out: Log TGI (converted))?
Its TGI is 30.9 µM.

What about the GI50 [30] of the same compound?
The GI50 was 97.7 µM.

What about the TGI ([30]; read-out: Log TGI (converted)) of the same compound?
The TGI was greater than 100 µM.

And the GI50 [31]?
Its GI50 is greater than 100 µM.

What about the TGI ([31]; read-out: Log TGI (converted)) of the same compound?
The TGI was greater than 100 µM.

What about the Activity [32] of the same compound?
The Activity was 0%.

What about the GI50 [33] of the same compound?
Its GI50 is 25.7 µM.

And the TGI ([33]; read-out: Log TGI (converted))?
Its TGI is 44.7 µM.

And the GI50 [34]?
The GI50 was greater than 100 µM.

What about the TGI ([34]; read-out: Log TGI (converted)) of the same compound?
The TGI was greater than 100 µM.

And the GI50 [35]?
Its GI50 is greater than 100 µM.

What about the TGI ([35]; read-out: Log TGI (converted)) of the same compound?
The TGI was greater than 100 µM.

What about the GI50 [36] of the same compound?
The GI50 was 18.2 µM.

What about the TGI ([36]; read-out: Log TGI (converted)) of the same compound?
Its TGI is 32.4 µM.

And the GI50 [37]?
Its GI50 is greater than 100 µM.

And the TGI ([37]; read-out: Log TGI (converted))?
Its TGI is greater than 100 µM.

And the GI50 [38]?
Its GI50 is 17.4 µM.

What about the TGI ([38]; read-out: Log TGI (converted)) of the same compound?
The TGI was 33.9 µM.

What about the GI50 [39] of the same compound?
Its GI50 is 37.2 µM.

And the TGI ([39]; read-out: Log TGI (converted))?
Its TGI is greater than 100 µM.

And the GI50 [40]?
Its GI50 is 22.9 µM.

What about the TGI ([40]; read-out: Log TGI (converted)) of the same compound?
The TGI was 42.7 µM.
